B1: region 161-243: region of GAD 65, residues 161-243, tested as overlapping peptides (peptide, UniProt Q05329 161-243, looked up, fragment)
chain: MHCQTTLKYAIKTGHPRYFNQLSTGLDMVGLAADWLTSTANTNMFTYEIAPVFVLLEYVTLKKMREIIGWPGGSGDGIFSPGG
modifications: tested as overlapping peptides
notes: region of GAD 65, residues 161-243, tested as overlapping peptides

Columns and labels:
[1] = system: T cells from transgenic NOD mice expressing the human DQβ1*0302 gene; assay: Proliferation of T cells from transgenic NOD mice expressing human DQβ1*0302; type: cell-based; details: T cells from DQβ1*0302 transgenic NOD mice
Description: Type 1 diabetes is associated with the HLA DQβ1*0302 allele (Nepom and Erlich, Ann. Rev. Immunol. 9:493-525, 1991). Transgenic NOD mice expressing the human DQβ1*0302 gene were constructed. […] Thus, these peptides are recognized by T cells in the context of DQβ1*0302 and are additional peptides suitable for use in the present invention.

[2] = system: T cells from Type 1 diabetic patients and healthy controls; assay: T cell proliferation assay with GAD 65 peptides (epitope mapping in patients, controls, co-twins); type: cell-based, human; details: patients compared with controls
Procedure: FIG. 2 is a graph illustrating the T cell proliferative responses to peptides corresponding to various regions of GAD 65. Responses to peptides (5 μg/ml) in 5-7 Type 1 diabetic patients (solid bars) and 4-5 healthy controls (hatched bars) are expressed by the number of responders (y-axis). Background counts were normally between 600 and 3000 cpm, while positive wells had to exceed 1500 and 6000 cpm respective to background counts.
A major focus of research into autoimmunity is the identification of dominant epitopes on disease-associated auto-antigens recognized by autoreactive T cells. Immunodominant regions of the antigen GAD 65 have been identified in Type 1 diabetic patients (Lohmann et al., Lancet 343:1607-08, 1994; Atkinson et al., J Clin. Invest. 94:2125-2129, 1994). Within the subject invention, a detailed T cell epitope mapping of immunodominant regions in patients with Type 1 diabetes was performed. Two regions of GAD 65 were selected for decoding, representing the regions associated with the highest frequency of T cell responses in both Type 1 diabetics (amino acid residues 473-555 and 161-243) and control subjects (amino acid residues 161-243) (FIGS. 2 and 4). Nine diabetics who responded to region 473-555 were selected for further study of their response to 18 single peptides covering this region. […]

| Molecule | proliferation of T cells [1] | recognition by T cells of Type 1 diabetic patients versus controls [2] |
| --- | --- | --- |
| GAD 65 native protein: 65 kD isoform of human glutamic acid decarboxylase, native protein | stimulated to proliferate |  |
| B1 |  | recognized by T cells from both normals and IDDM patients |
